In general, Km refers to the substrate concentration at which the rate is half of its maximum.

The record followed here is PMC10847848, “Production of recombinant intact and N-terminal truncated lipoxygenase isozyme III expressed in Saccharomyces cerevisiae and its influence on glutenin polypeptides” (Food Chemistry: Molecular Sciences, 2024).

Molecules are shown by their SMILES.

In one experiment the target is T1, recombinant LOX III (Triticum aestivum, UniProt F1DTB8).
T1 construct: gene LOX3; full length, 878 residues, 95 kDa; codon-optimised; LOX III-2A-mClover3 in pGK423, S. cerevisiae BY4741; crude soluble extract
T1 sequence (F1DTB8 1-878): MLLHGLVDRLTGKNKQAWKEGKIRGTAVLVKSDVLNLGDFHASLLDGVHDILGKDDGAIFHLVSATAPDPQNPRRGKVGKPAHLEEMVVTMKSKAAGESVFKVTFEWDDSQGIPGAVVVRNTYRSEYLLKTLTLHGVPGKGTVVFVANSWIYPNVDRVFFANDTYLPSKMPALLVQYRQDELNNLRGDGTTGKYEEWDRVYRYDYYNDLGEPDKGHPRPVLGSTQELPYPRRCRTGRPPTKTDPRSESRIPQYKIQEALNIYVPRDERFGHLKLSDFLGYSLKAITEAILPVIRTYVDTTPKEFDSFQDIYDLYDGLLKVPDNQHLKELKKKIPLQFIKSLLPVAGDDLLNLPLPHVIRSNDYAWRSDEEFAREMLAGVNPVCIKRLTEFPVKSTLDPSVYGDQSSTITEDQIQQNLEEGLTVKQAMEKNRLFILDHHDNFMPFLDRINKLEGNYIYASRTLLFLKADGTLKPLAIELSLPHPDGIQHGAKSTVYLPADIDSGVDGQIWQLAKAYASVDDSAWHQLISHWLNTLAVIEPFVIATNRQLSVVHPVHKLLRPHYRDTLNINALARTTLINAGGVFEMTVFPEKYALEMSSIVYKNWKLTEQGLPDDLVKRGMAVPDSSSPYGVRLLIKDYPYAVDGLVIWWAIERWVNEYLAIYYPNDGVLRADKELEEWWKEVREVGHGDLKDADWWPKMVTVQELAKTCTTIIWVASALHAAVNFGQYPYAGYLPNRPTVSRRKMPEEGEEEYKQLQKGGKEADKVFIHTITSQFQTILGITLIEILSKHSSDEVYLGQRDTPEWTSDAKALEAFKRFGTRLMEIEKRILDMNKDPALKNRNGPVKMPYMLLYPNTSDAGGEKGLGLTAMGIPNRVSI
Description: conjugated diene absorbance at […] nm, Lineweaver-Burk. Type of experiment: biochemical. The note with it: crude yeast extract in 50 mM phosphate pH 7.6 (extraction buffer); methods print linoleic acid range as 10 mM to 70 mM, conflicting with Km in µM.

In a further experiment the target is T2, recombinant Mini-LOX III (Triticum aestivum, UniProt F1DTB8).
T2 construct: gene LOX3; cut placed by alignment to soybean Mini-LOX STPIEFHSFQ; pGK423, S. cerevisiae BY4741; crude soluble extract
T2 sequence (F1DTB8 343-878 limits assumed): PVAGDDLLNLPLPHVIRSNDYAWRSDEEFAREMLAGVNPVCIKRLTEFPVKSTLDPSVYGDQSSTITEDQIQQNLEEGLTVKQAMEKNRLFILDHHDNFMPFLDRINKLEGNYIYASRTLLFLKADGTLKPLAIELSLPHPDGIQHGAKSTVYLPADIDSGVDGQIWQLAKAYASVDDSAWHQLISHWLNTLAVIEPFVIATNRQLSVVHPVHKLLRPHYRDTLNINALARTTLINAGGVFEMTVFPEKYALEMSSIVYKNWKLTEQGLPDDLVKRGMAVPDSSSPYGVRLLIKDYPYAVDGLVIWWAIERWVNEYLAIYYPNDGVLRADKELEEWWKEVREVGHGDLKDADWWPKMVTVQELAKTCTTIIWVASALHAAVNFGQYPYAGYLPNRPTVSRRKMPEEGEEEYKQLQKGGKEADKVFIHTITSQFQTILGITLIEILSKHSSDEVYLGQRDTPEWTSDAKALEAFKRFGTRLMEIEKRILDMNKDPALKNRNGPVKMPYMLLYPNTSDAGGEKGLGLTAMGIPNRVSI
Described as above. The note with it: crude yeast extract in 50 mM phosphate pH 7.6 (extraction buffer); methods print linoleic acid range as 10 mM to 70 mM, conflicting with Km in µM. In kind it is biochemical.

With `CCCCC/C=C\C/C=C\CCCCCCCC(=O)O` [linoleic acid], the Km was determined as 25.7 µM at recombinant LOX III and 21.3 µM at recombinant Mini-LOX III.
